Data published in patent US10479784B2, “Substituted pyrazin-2-amines as inhibitors of ATR kinase” (Vertex Pharmaceuticals Incorporated, priority 2008, dated 2019).
Like-named read-outs stand apart in the source and are kept apart here.

What was measured:
intracellular ATR = intracellular ATR (Homo sapiens (Human), UniProt Q13535); assay: Cellular ATR Inhibition Assay (H2AX phosphorylation in hydroxyurea treated HT29 cells); type: cell-based; conditions: 2 mM hydroxyurea, phosphorylated H2AX-positive nuclei
Chain of intracellular ATR (Q13535 whole entry): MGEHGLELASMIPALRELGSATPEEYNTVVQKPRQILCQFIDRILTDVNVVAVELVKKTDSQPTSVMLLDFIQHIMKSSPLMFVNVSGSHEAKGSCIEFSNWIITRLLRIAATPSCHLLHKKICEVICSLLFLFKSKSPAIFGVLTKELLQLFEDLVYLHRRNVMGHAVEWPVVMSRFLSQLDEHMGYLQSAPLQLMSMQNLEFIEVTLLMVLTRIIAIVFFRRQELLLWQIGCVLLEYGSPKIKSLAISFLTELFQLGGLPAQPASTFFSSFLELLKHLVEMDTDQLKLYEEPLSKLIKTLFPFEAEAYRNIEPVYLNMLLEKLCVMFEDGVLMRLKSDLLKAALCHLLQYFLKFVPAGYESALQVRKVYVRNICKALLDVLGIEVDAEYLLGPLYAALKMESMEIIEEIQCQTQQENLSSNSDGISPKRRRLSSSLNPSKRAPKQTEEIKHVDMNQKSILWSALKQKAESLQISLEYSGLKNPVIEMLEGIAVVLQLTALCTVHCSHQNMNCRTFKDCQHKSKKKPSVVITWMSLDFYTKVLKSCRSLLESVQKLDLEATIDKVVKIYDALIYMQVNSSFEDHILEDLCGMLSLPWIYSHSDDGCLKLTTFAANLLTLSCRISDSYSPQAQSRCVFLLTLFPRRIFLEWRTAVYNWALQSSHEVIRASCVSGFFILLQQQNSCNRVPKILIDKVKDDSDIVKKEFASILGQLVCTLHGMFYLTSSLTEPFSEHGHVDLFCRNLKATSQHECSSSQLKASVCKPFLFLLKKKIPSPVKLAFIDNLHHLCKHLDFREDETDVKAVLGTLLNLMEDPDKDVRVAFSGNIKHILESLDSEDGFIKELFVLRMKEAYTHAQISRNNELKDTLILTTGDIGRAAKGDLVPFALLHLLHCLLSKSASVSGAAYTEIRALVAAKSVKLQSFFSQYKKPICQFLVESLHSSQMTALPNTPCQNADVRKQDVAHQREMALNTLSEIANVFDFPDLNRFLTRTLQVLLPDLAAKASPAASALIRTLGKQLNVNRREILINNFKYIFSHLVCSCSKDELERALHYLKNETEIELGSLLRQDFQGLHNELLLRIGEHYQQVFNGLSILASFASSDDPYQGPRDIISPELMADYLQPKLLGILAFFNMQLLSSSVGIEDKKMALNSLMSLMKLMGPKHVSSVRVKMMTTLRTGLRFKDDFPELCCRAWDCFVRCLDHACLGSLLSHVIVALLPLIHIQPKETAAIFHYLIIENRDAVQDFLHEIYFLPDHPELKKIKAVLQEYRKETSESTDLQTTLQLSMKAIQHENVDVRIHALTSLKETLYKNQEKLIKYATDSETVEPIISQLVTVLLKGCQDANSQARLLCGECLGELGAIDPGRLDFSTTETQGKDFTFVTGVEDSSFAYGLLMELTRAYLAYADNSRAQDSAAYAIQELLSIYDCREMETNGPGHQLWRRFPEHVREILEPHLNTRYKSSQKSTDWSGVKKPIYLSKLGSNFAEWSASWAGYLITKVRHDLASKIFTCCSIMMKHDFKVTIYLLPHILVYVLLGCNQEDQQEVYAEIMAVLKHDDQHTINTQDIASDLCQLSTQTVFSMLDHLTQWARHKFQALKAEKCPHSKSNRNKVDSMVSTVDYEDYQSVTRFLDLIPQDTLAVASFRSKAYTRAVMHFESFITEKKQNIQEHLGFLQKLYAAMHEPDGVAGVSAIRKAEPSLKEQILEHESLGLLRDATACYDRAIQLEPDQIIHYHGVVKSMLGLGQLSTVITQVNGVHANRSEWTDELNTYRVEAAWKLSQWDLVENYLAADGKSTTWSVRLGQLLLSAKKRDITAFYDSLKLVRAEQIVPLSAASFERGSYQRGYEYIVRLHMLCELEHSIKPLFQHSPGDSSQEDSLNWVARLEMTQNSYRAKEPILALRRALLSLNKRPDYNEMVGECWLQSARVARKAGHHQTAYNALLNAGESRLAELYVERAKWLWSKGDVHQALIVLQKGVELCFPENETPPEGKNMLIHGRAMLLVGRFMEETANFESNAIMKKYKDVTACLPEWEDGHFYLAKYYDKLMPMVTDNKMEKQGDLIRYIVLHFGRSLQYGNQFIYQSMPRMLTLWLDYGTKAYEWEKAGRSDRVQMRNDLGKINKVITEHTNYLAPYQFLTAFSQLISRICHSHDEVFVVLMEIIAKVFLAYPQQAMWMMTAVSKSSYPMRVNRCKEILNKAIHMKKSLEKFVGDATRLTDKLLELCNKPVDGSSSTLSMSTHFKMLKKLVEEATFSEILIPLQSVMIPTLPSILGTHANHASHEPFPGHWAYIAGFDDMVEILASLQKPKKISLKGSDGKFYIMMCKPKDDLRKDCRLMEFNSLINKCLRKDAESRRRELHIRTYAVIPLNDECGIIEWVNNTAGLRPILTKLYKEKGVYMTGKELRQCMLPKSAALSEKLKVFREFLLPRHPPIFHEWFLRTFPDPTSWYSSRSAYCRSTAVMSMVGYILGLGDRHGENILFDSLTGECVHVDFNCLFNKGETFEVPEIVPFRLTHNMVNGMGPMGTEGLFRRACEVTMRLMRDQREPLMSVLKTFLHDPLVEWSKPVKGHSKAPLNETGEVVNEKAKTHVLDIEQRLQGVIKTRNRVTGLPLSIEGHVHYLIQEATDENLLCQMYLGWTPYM
Chain of intracellular ATR (Q8WXE1 whole entry partner): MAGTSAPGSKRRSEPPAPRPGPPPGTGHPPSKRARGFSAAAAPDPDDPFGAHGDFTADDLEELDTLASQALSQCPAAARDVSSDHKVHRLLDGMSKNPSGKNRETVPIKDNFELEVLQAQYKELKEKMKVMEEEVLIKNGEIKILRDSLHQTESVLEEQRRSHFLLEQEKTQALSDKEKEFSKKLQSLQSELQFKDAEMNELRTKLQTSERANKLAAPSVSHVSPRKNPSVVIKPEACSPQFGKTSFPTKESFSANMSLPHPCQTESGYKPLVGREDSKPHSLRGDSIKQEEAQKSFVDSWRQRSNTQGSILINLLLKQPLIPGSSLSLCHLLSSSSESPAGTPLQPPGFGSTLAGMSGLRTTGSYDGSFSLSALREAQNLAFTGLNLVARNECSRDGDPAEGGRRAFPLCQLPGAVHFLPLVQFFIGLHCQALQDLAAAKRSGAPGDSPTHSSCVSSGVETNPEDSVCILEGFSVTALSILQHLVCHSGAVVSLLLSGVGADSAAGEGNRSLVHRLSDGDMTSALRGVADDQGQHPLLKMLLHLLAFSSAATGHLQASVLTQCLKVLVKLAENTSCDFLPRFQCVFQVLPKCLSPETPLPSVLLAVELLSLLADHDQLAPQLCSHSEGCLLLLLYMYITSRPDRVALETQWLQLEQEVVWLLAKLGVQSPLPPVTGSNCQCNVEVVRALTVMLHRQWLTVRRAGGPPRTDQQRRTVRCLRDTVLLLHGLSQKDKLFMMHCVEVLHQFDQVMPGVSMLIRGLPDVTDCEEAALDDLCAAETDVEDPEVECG
Protocol: Compounds can be screened for their ability to inhibit intracellular ATR using an immunofluorescence microscopy assay to detect phosphorylation of the ATR substrate histone H2AX in hydroxyurea treated cells. HT29 cells are plated at 14,000 cells per well in 96-well black imaging plates (BD 353219) in McCoy's 5 A media (Sigma M8403) supplemented with 10% foetal bovine serum (JRH Biosciences 12003), Penicillin/Streptomycin solution diluted 1:100 (Sigma P7539), and 2 mM L-glutamine (Sigma G7513), and allowed to adhere overnight at 37° C. in 5% CO2. Compounds are then added to the cell media from a final concentration of 25 μM in 3-fold serial dilutions and the cells are incubated at 37° C. in 5% CO2. After 15 min, hydroxyurea (Sigma H8627) is added to a final concentration of 2 mM.
After 45 min of treatment with hydroxyurea, the cells are washed in PBS, fixed for 10 min in 4% formaldehyde diluted in PBS (Polysciences Inc 18814), washed in 0.2% Tween-20 in PBS (wash buffer), and permeabilised for 10 min in 0.5% Triton X-100 in PBS, all at room temperature. The cells are then washed once in wash buffer and blocked for 30 min at room temperature in 10% goat serum (Sigma G9023) diluted in wash buffer (block buffer). […]
Cells are imaged for Alexa Fluor 488 and Hoechst intensity using the BD Pathway 855 Bioimager and Attovision software (BD Biosciences, Version 1.6/855) to quantify phosphorylated H2AX Ser139 and DNA staining, respectively. The percentage of phosphorylated H2AX-positive nuclei in a montage of 9 images at 20× magnification is then calculated for each well using BD Image Data Explorer software (BD Biosciences Version 2.2.15). […] The percentage of H2AX positive nuclei is finally plotted against concentration for each compound and IC50s for intracellular ATR inhibition are determined using Prism software(GraphPad Prism version 3.0cx for Macintosh, GraphPad Software, San Diego Calif., USA).

full-length ATR = full-length ATR (Homo sapiens (Human), UniProt Q13535); assay: ATR Inhibition Assay (radioactive-phosphate incorporation); type: biochemical
Chain of full-length ATR (Q13535 whole entry): as the sequence (Q13535 whole entry) above
In short: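 Ki(app) was derived by non-linear regression of background-corrected initial rates of 33P incorporation into an 800 μM target peptide, read by phosphocellulose filter scintillation counting. Reaction conditions: 5 nM full-length ATR, 10 μM [γ-33P]ATP, pH 7.5 Tris buffer with MgCl2 and DTT, 25 °C, 10-min preincubation, 24 h run.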

[1] = tested on: HCT116 colorectal cancer cells; assay: HCT116 cell viability (MTS), compound alone; type: cell-based; conditions: Homo sapiens, HCT-116, 96 h, read-out: HTC116 (MTS) IC50
Protocol: (§1) Compounds were screened for their ability to sensitize HCT116 colorectal cancer cells to Cisplatin using a 96 h cell viability (MTS) assay. […] Compounds and Cisplatin were then both added simultaneously to the cell media in 2-fold serial dilutions from a top final concentration of 10 μM as a full matrix of concentrations in a final cell volume of 200 μl, and the cells were then incubated at 37° C. in 5% CO2. After 96 h, 40 μl of MTS reagent (Promega G358a) was added to each well and the cells were incubated for 1 h at 37° C. in 5% CO2.

[2] = tested on: HCT116 colorectal cancer cells; assay: Cisplatin Sensitization Assay (96 h MTS cell viability); type: cell-based; conditions: concentration of compound required to reduce the IC50 of Cisplatin alone by at least 3-fold
Protocol: as §1

[3] = 5 nM full-length ATR, 10 μM ATP, Ki(app), read-out: ATR Inhibition Assay Ki

| IC50 (intracellular ATR) [nM] | Ki (full-length ATR; [3]) [nM] | Ki (full-length ATR; read-out: ATR Ki) [nM] | IC50 [1] [nM] | Structure (SMILES) | Synergy with Cisplatin (uM) [2] |
| --- | --- | --- | --- | --- | --- |
| ≤ 100 | ≤ 100 | ≤ 10 | 100 to 1000 | CNCc1ccc(-c2nnc(-c3nc(-c4ccc(S(=O)(=O)C(C)C)cc4)cnc3N)o2)cc1 [IA-159, 5-(4-isopropylsulfonylphenyl)-3-[5-[4-(methylaminomethyl)phenyl]-1,3,4-oxadiazol-2-yl]pyrazin-2-amine] | +++ (Compounds with an IC50 or Ki value of ≤100 nM are marked with “+++.”) |
| ≤ 100 | ≤ 100 | ≤ 10 | 100 to 1000 | CC(O)CNCc1ccc(-c2cc(-c3nc(-c4ccc(S(=O)(=O)C(C)C)cc4)cnc3N)on2)cc1 (stereo not drawn) [IIA-11, 1-(4-(5-(3-amino-6-(4-(isopropylsulfonyl)phenyl)pyrazin-2-yl)isoxazol-3-yl)benzylamino)propan-2-ol] | +++ (Compounds with an IC50 or Ki value of ≤100 nM are marked with “+++.”) |

| Structure (SMILES) | IC50 (intracellular ATR) [nM] | Ki (full-length ATR; [3]) [nM] | Ki (full-length ATR; read-out: ATR Ki) [nM] | IC50 [1] [nM] | Synergy with Cisplatin (uM) [2] |
| --- | --- | --- | --- | --- | --- |
| CS(=O)(=O)c1ccc(-c2cnc(N)c(C(=O)Nc3ccccc3)n2)cc1 [Compound I-82, 3-amino-6-(4-(methylsulfonyl)phenyl)-N-phenylpyrazine-2-carboxamide] | 1000 to 20000 | ≤ 100 | 10 to 100 | 1000 to 20000 | ++ (Compounds with an IC50 or Ki value >100 nM but ≤1 uM are marked with “++.”) |
